Assay results taken from US11655235B2, “Pyrrolidine and piperidine compounds” (YUHAN CORPORATION, priority 2019, dated 2023).

Target: T1, Recombinant human FAP (Homo sapiens, UniProt Q12884)
T1 construct: purchased R&D systems
T1 sequence (Q12884 1-760): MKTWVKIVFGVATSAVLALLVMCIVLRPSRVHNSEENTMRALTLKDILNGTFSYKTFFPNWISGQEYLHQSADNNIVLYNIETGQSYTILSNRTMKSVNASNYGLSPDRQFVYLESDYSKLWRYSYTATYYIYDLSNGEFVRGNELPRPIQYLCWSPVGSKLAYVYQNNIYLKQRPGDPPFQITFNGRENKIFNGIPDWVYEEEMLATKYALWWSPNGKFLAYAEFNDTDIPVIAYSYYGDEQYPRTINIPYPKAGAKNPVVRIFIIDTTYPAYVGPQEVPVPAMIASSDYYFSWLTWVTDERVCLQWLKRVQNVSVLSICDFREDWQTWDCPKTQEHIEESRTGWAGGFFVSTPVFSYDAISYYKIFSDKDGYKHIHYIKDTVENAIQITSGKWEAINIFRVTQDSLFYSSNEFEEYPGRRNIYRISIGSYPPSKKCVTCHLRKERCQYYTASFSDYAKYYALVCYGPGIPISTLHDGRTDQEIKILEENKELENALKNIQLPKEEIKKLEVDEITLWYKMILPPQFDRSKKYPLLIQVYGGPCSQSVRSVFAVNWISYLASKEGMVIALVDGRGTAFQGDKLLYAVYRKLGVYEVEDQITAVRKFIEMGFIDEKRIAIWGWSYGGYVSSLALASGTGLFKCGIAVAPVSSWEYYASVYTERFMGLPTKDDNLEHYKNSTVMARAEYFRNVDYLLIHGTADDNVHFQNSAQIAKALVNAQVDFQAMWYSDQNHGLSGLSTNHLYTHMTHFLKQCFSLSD
Assay: FAP inhibition, fluorogenic substrate Z-Gly-Pro-AMC
Assay type: biochemical
Details: recombinant human FAP, substrate Z-Gly-Pro-AMC
Method in brief: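 Recombinant human FAP, 10 ng per reaction, in 50 mM Tris pH 7.5 with 1 M NaCl and 1 mg/ml BSA at 25° C; substrate Z-Gly-Pro-AMC, ≤0.1% DMSO. AMC fluorescence read at ex 380/em 460 nm; % signal-rate decrease vs no-inhibitor control, 8-point curves fitted to a four-parameter logistic for IC50.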

IC50 [nM] | SMILES
1.21 | N#C[C@@H]1C[C@H](F)CN1C(=O)CN1CC[C@H](Nc2cccc3ncccc23)C1 [Example 228, (2S,4S)-4-fluoro-1-[2-[(3S)-3-(5-quinolylamino)pyrrolidin-1-yl]acetyl]pyrrolidine-2-carbonitrile]
1.3 | N#Cc1cnc2cccc(N[C@H]3CCN(CC(=O)N4CCC[C@H]4C#N)C3)c2c1 [Example 232, 5-[[(3S)-1-[2-oxo-2-[(2S)-2-cyanopyrrolidin-1-yl]ethyl]pyrrolidin-3-yl]amino]quinoline-3-carbonitrile]
0.7 | COc1cnc2cccc(N[C@H]3CCN(CC(=O)N4CCC[C@H]4C#N)C3)c2c1 [Example 233, (2S)-1-[2-[(3S)-3-[(3-methoxy-5-quinolyl)amino]pyrrolidin-1-yl]acetyl]pyrrolidine-2-carbonitrile]
2.2 | N#C[C@@H]1CCCN1C(=O)CN1CC[C@H](Nc2ccc(F)c3ncccc23)C1 [Example 244, (2S)-1-[2-[(3S)-3-[(8-fluoro-5-quinolyl)amino]pyrrolidin-1-yl]acetyl]pyrrolidine-2-carbonitrile]
1 | N#C[C@@H]1CCCN1C(=O)CN1CC[C@H](Nc2ccc(C(F)(F)F)c3ncccc23)C1 [Example 245, (2S)-1-[2-[(3S)-3-[[8-(trifluoromethyl)-5-quinolyl]amino]pyrrolidin-1-yl]acetyl]pyrrolidine-2-carbonitrile]
1 | N#C[C@@H]1C[C@H](F)CN1C(=O)CN1CC[C@H](Nc2cccc3ncc(F)cc23)C1 [Example 255, (2S,4S)-4-fluoro-1-[2-[(3S)-3-[(3-fluoro-5-quinolyl)amino]pyrrolidin-1-yl]acetyl]pyrrolidine-2-carbonitrile]
1.1 | COc1ccc(N[C@H]2CCN(CC(=O)N3C[C@@H](F)C[C@H]3C#N)C2)c2cccnc12 [Example 263, (2S,4S)-4-fluoro-1-[2-[(3S)-3-[(8-methoxy-5-quinolyl)amino]pyrrolidin-1-yl]acetyl]pyrrolidine-2-carbonitrile]
0.8 | N#C[C@@H]1C[C@H](F)CN1C(=O)CN1CC[C@H](Nc2ccc(OC(F)(F)F)c3ncccc23)C1 [Example 266, (2S,4S)-4-fluoro-1-[2-[(3S)-3-[[8-(trifluoromethoxy)-5-quinolyl]amino]pyrrolidin-1-yl]acetyl]pyrrolidine-2-carbonitrile]
1 | N#C[C@@H]1C[C@H](F)CN1C(=O)CN1CC[C@H](Nc2ccc(OCc3ccccc3)c3ncccc23)C1 [Example 268, (2S,4S)-4-fluoro-1-[2-[(3S)-3-[(8-benzyloxy-5-quinolyl)amino]pyrrolidin-1-yl]acetyl]pyrrolidine-2-carbonitrile]
4 | N#C[C@@H]1C[C@H](F)CN1C(=O)CN1CCC(Nc2ccc(C(F)(F)F)c3ncccc23)CC1 [Example 334, (2S,4S)-4-fluoro-1-[2-[4-[[8-(trifluoromethyl)-5-quinolyl]amino]-1-piperidyl]acetyl]pyrrolidine-2-carbonitrile]
2.2 | N#C[C@@H]1C[C@H](F)CN1C(=O)CN1CCC(Nc2ccc(OC(F)(F)F)c3ncccc23)CC1 [Example 347, (2S,4S)-4-fluoro-1-[2-[4-[[8-(trifluoromethoxy)-5-quinolyl]amino]-1-piperidyl]acetyl]pyrrolidine-2-carbonitrile]
2.1 | COc1cnc2cccc(NC3CCN(CC(=O)N4C[C@@H](F)C[C@H]4C#N)CC3)c2c1 [Example 348, (2S,4S)-4-fluoro-1-[2-[4-[(3-methoxy-5-quinolyl)amino]-1-piperidyl]acetyl]pyrrolidine-2-carbonitrile]
1.6 | N#C[C@@H]1C[C@H](F)CN1C(=O)CN1CCC(Nc2cccc3ncc(F)cc23)CC1 [Example 349, (2S,4S)-4-fluoro-1-[2-[4-[(3-fluoro-5-quinolyl)amino]-1-piperidyl]acetyl]pyrrolidine-2-carbonitrile]
2.7 | N#C[C@@H]1C[C@H](F)CN1C(=O)CN1CCC(Nc2cccc3cnc(Cl)cc23)CC1 [Example 352, (2S,4S)-1-[2-[4-[(3-chloro-5-isoquinolyl)amino]-1-piperidyl]acetyl]-4-fluoro-pyrrolidine-2-carbonitrile]
2.7 | COc1cc2c(NC3CCN(CC(=O)N4C[C@@H](F)C[C@H]4C#N)CC3)cccc2cn1 [Example 355, (2S,4S)-4-fluoro-1-[2-[4-[(3-methoxy-5-isoquinolyl)amino]-1-piperidyl]acetyl]pyrrolidine-2-carbonitrile]
1.2 | Cc1ccc2nccc(OC3CCN(CC(=O)N4C[C@@H](F)C[C@H]4C#N)CC3)c2c1 [Example 410, (2S,4S)-4-fluoro-1-[2-[4-[(6-methyl-4-quinolyl)oxy]-1-piperidyl]acetyl]pyrrolidine-2-carbonitrile]

SMILES | IC50 [nM]
N#Cc1ccc(N[C@H]2CCN(CC(=O)N3CCC[C@H]3C#N)C2)c2cccnc12 [Example 247, 5-[[(3S)-1-[2-oxo-2-[(2S)-2-cyanopyrrolidin-1-yl]ethyl]pyrrolidin-3-yl]amino]quinoline-8-carbonitrile] | 1.3
